What was measured:
[1] = molecular target: T1, eIF4A1(19-406)-(AG)5-AMPPNP complex (purified recombinant human eIF4A) (Homo sapiens, UniProt P60842); assay: Thermal shift assay, melting temperature of eIF4A1(19-406)-(AG)5-AMPPNP-rocaglate complexes; format: binding; details: 5 μM eIF4A, 50 μM (AG)5 RNA, 1 mM AMP-PNP, 100 μM compound; DMSO negative control Tm=48.80
T1 construct: eIF4A1(19-406)=amino acid residues 19-406 of eIF4A1; made in house
Experimental: A thermal shift assay was performed to study the complexing of the synthetic rocaglates with the eIF4A complex. For the thermal shift assay a final protein concentration of 5 μM purified recombinant human eIF4A (purification according to Iwasaki, et al., 2019) was used. In a reaction volume of 20 μL a 10-fold excess of polypurine RNA ((AG)5) (biomers) (final concentration: 50 μM), 1 mM of the ATP analogue AMP-PNP (ROCHE™), 100 μM of the synthetic rocaglate compounds or DMSO as well as 0.3 μL SYPRO® Orange Protein Gel Stain (SIGMA-ALDRICH™) were mixed with the protein. The measurement was performed in a MICROAMP® Fast 96-Well Reaction Plate (0.1 mL, APPLIED BIOSYSTEMS™) using the QUANTSTUDIO3™ Real-Time PCR System (APPLIED BIOSYSTEMS™). The melt curve starting temperature was set to 10° C. in increments of 0.05° C./s ending at 95° C. After measurement, the data was analyzed using the PROTEIN THERMAL SHIFT™ Software (APPLIED BIOSYSTEMS™).

5′-UTR of beta-globin = details: HepG2 cells, 5, 10, 50 and 100 nM, 48 h, normalized to Renilla and DMSO control
[2] = system: RNA viruses representing different virus families (EBOV, CoV, ZIKV, CHIKV, HEV); details: non-cytotoxic concentrations; cited from earlier work
5′-UTR of (AG)15 = details: HepG2 cells, 5, 10, 50 and 100 nM, 48 h, normalized to Renilla and DMSO control

T1 sequence (P60842 19-406, one chain of several): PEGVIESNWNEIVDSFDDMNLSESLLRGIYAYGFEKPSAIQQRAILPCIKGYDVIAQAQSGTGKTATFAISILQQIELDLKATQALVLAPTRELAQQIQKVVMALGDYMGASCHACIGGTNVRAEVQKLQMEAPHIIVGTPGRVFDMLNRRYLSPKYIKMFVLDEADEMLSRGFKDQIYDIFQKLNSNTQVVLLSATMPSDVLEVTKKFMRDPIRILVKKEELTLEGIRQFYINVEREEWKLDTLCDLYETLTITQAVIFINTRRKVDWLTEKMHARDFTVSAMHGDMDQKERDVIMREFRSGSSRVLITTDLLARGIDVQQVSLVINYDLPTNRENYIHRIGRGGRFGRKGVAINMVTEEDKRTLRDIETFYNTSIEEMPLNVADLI

Row | Structure (SMILES) | melting temperature (Tm) of eIF4A1(19-406)-(AG)5-AMPPNP-Rocaglate complex [1] | also measured
1 | CONC(=O)[C@@H]1[C@H](O)[C@]2(O)c3c(OC)cc(O)cc3O[C@]2(c2ccc(OC)cc2)[C@H]1c1ccccc1 [Compound 7, (1S,2S,3R,3aS,8bR)-1,6,8b-trihydroxy-N,8-dimethoxy-3a-(4-methoxyphenyl)-3-phenyl-2,3,3a,8b-tetrahydro-1H-cyclopenta[b]benzofuran-2-carboxamide] | 49.07 | –
2 | CONC(=O)[C@H]1[C@@H](O)[C@@]2(O)c3c(OC)cc(OC)cc3O[C@@]2(c2ccc(O)cc2)[C@@H]1c1ccccc1 [Compound 1, (1R,2R,3S,3aR,8bS)-1,8b-dihydroxy-3a-(4-hydroxyphenyl)-N,6,8-trimethoxy-3-phenyl-2,3-dihydro-1Hcyclopenta[b]benzofuran-2-carboxamide] | 51.49 | reporter activity, β-globin 5′-UTR (eIF4A-independent effect) (5′-UTR of beta-globin): nonspecific effects
3 | COC(=O)[C@H]1[C@@H](O)[C@@]2(O)c3c(OC)cc(O[C@@H]4O[C@@H]([C@H](O)CO)CO[C@H]4OC)cc3O[C@@]2(c2ccc(OC)cc2)[C@@H]1c1ccccc1 [Silvestrol, methyl (1R,2R,3S,3aR,8bS)-6-[[(2S,3R,6R)-6-[(1R)-1,2-dihydroxyethyl]-3-methoxy-1,4-dioxan-2-yl]oxy]-1,8b-dihydroxy-8-methoxy-3a-(4-methoxyphenyl)-3-phenyl-2,3-dihydro-1H-cyclopenta[b][1]benzofuran-2-carboxylate] | – | concentration range of broad-spectrum antiviral activity [2]: low nanomolar range
4 | CONC(=O)[C@H]1[C@@H](O)[C@@]2(O)c3c(OC)cc(O)cc3O[C@@]2(c2ccc(OC)cc2)[C@@H]1c1ccccc1 [Compound 6, (1R,2R,3S,3aR,8bS)-1,6,8b-trihydroxy-N,8-dimethoxy-3a-(4-methoxyphenyl)-3-phenyl-2,3-dihydro-1Hcyclopenta[b]benzofuran-2-carboxamide] | 51.29 | –
5 | COc1cc(OC)c2c(c1)O[C@]1(c3ccc(O)cc3)[C@@H](c3ccccc3)[C@H](C(N)=O)[C@H](O)[C@]21O [Compound 8, (1S,2S,3R,3aS,8bR)-1,8b-dihydroxy-3a-(4-hydroxyphenyl)-6,8-dimethoxy-3-phenyl-2,3-dihydro-1H-cyclopenta[b]benzofuran-2-carboxamide] | 51.07 | –
6 | COc1cc(OC)c2c(c1)O[C@@]1(c3ccc(O)cc3)[C@H](c3ccccc3)[C@@H](C(N)=O)[C@@H](O)[C@@]21O [Compound 9, (1R,2R,3S,3aR,8bS)-1,8b-dihydroxy-3a-(4-hydroxyphenyl)-6,8-dimethoxy-3-phenyl-2,3-dihydro-1H-cyclopenta[b]benzofuran-2-carboxamide] | 55.44 | reporter activity, (AG)15 5′-UTR (eIF4A-dependency) (5′-UTR of (AG)15): only reduced reporter activity with polyAG sequences

Source: patent publication US20260115213A1 (priority 2021, published 2026)
